The assay has as its target T1, SARS-CoV-2 3CL-Pro (Severe acute respiratory syndrome coronavirus 2, UniProt P0DTD1).
T1 construct: SARS-CoV-2 main protease (3CL-Pro), also termed M-Pro
In words: biochemical. Conditions: for inhibition at 20 µM: read-out: 3CL-Pro Inhibition [%] Primary Screen (20 µM).

[1] abbreviates: dose response, 8 concentrations, absence of DTT, 60 min pre-incubation at 37 °C, 15 µM substrate, 60 nM enzyme, read-out: IC50.

pIC50: −log10 of the molar value. Structures can show the parent of a compound that is named as a salt. Where two headings read alike, the source gives them in different places.

Take `O=[N+]([O-])c1ccc(Sc2cccc[n+]2[O-])c2nonc12` [compound 50, 4-Nitro-1-[(1-oxidopyridin-2-yl)sulfanyl]-2,1,3-benzoxadiazole]: the inhibition at 20 µM was determined as 102%. Also, the pIC50 (read-out: IC50) was 7.00. On the same counts, the results for `CCN1CCN(C(c2ccc(C(F)(F)F)cc2)c2ccc3cccnc3c2O)CC1` (stereo not drawn) [compound 52, 7-[(4-Ethylpiperazin-1-yl)[4-(trifluoromethyl)phenyl]methyl]q uinolin-8-ol] are 100% and 6.82.

Turning to `Cc1ccc(-n2sc(=O)n(Cc3ccc(F)cc3)c2=O)cc1` [compound 53, 4-(4-Fluorobenzyl)-2-(4-methylphenyl)-1,2,4-thiadiazolidine-3,5-dione], the pIC50 (read-out: IC50) was 6.82. On to `CCCCCCNC(=O)n1cc(F)c(=O)[nH]c1=O` [compound 55, 5-Fluoro-N-hexyl-2,4-dioxo-1,2,3,4-tetrahydropyrimidine-1-carboxamide], for which the inhibition at 20 µM was 101%. Take `O=C(CCl)c1ccccc1` [compound 56, 2-chloro-1-phenylethanone]: the inhibition at 20 µM stood at 99.9%. Besides, for the setting “read-out: IC50”, the pIC50 is 6.72. With `CCOC(=O)Cc1ccc(-c2ccccc2)cc1` [compound 57, [1,1'-Biphenyl]-4-acetic acid ethyl ester], the inhibition at 20 µM amounted to 96.2%. Further, for the setting “read-out: IC50”, the pIC50 is 6.70.

With `O=C1C=CC(=O)C2=C1C1c3ccccc3C2c2ccccc21` [compound 61, Pentacyclo[6.6.6.0(2,7).0(9,14).0(15,20)]icosa-2(7),4,9,11,13,15,17,19-octaene-3,6-dione], the inhibition at 20 µM stood at 99.2%. Also, the negative-log IC50 (pIC50) (read-out: IC50) is 6.62. Consider `O=C(O)c1ccccc1-c1c2cc(Br)c(=O)cc-2oc2[c]([Hg][OH])c(O)c(Br)cc12` [compound 62, [2,7-dibromo-9-(2-carboxyphenyl)-3-hydroxy-6-oxoxanthen-4-yl]mercury;hydrate], for which the pIC50 was 6.62. Take `CCOc1cc(C(Nc2cc(C)ccn2)c2ccc3cccnc3c2O)ccc1OC` (stereo not drawn) [compound 63, 7-[(3-Ethoxy-4-methoxyphenyl)[(4-methylpyridin-2-yl)amino]methyl]quinolin-8-ol]: the pIC50 is 6.57 and the inhibition at 20 µM was determined as 98.9%. Consider `O=[N+]([O-])c1cnc(Sc2nnc(O)n2-c2ccc3c(c2)OCCO3)s1` [compound 64, 4-(2,3-Dihydro-1,4-benzodioxin-6-yl)-5-(5-nitrothiazol-2-ylsulfanyl)-4H-1,2,4-triazol-3-ol], for which the inhibition at 20 µM was found to be 96.4%. In addition, for the setting “read-out: IC50”, the pIC50 was 6.52. As for `Oc1c(I)cc(I)c(O)c1I` [compound 65, 2,4,6-Triiodoresorcine], the inhibition at 20 µM was found to be 99.7%. The negative logarithm of the IC50 (pIC50) (read-out: IC50) is 6.48.

As for `N#CSc1cc(SC#N)c(N)nc1N` [compound 66, 2,6-Diaminopyridine-3,5-diyl bis(thiocyanate)], for the setting “read-out: IC50”, the negative-log IC50 (pIC50) was 6.39. Take `O=[N+]([O-])C(Br)(CO)CO` [compound 67, 2-bromo-2-nitropropane-1,3-diol]: the inhibition at 20 µM came to 99.9%. In addition, the pIC50 (read-out: IC50) is 6.38.

Consider `Oc1cc(CNC(=S)C=Cc2cc(O)c(O)c(Br)c2)cc(O)c1O` [compound 68, 3-(3-Bromo-4,5-dihydroxyphenyl)-N-(3,4,5-trihydroxybenzyl)-2-propenethioamide], for which the inhibition at 20 µM turned out to be 79.4%. The pIC50 under setting [1] is 6.32. For the compound `Oc1cc2c(cc1C(c1ccc(C(F)(F)F)cc1)N1CCOCC1)OCO2` (stereo not drawn) [compound 70, 6-[morpholin-4-yl-[4-(trifluoromethyl)phenyl]methyl]-1,3-benzodioxol-5-ol], the inhibition at 20 µM was 81.4%. Also, where the note is “read-out: IC50”, the pIC50 was 6.27. For `CC(C)N(CCC(=O)c1ccc2ccccc2c1)Cc1ccccc1` [compound 71, 3-[benzyl(propan-2-yl)amino]-1-naphthalen-2-ylpropan-1-one], the inhibition at 20 µM was 75.7%. Moreover, for the setting “read-out: IC50”, the negative logarithm of the IC50 (pIC50) is 6.24. As for `COc1cccc2c1C(=O)c1c(O)c3c(c(O)c1C2=O)C[C@@](O)(C(CO)=NNC(=O)CCCCCN1C(=O)C=CC1=O)C[C@@H]3O[C@H]1C[C@H](N)[C@H](O)[C@H](C)O1` [compound 72, N'-[1-[4(S)-(3-Amino-2,3,6-trideoxy-alpha-L-lyxo-hexopyranosyloxy)-2(S),5,12-trihydroxy-7-methoxy-6,11-dioxo-1,2,3,4,6,11-hexahydronaphthacen-2-yl]-2-hydroxyethylidene]-6-(2,5-dioxo-2,5-dihydro-1H-pyrrol-1-yl)hexanohydrazide hydrochloride], the pIC50 was 6.24 and the inhibition at 20 µM turned out to be 101%. `CC[C@H](CO)Nc1nc(NCc2ccc(-c3ccccn3)cc2)c2ncn(C(C)C)c2n1` [compound 73, (2R)-2-[[9-propan-2-yl-6-[(4-pyridin-2-ylphenyl)methylamino]purin-2-yl]amino]butan-1-ol]: the inhibition at 20 µM amounted to 99.5%. Further, the pIC50 (read-out: IC50) was 6.08.

For `C=CC1=C(C)C2=Cc3c(C=C)c(C)c4[n]3[Fe]([Cl])[n]3c(c(C)c(CCC(=O)O)c3=CC3=NC(=C4)C(C)=C3CCC(=O)O)=CC1=N2` [compound 74, - (SP-5-13)-Chloro[3,8,13,17-tetramethyl-7,12-divinyl-21H,23H-porphine-2,18-dipropanoato(4-)-kappa N21,kappaN22,kappaN23,kappaN24]dihydrogenoferrate(2-)], the pIC50 was 6.06. For `CN(C)C(=S)SC(=S)N(C)C` [compound 75, dimethylcarbamothioyl N,N-dimethylcarbamodithioate], the pIC50 (read-out: IC50) is 6.03.

As to `CN=c1nc(-c2ccccc2)n(-c2ccccc2)s1` [compound 76, N-(2,3-Diphenyl-2,5-dihydro-1,2,4-thiadiazol-5-ylidene)-N-methylamine], the inhibition at 20 µM came out at 99.8%. Besides, the pIC50 under setting [1] was 6.01. With `COc1cc(C(=S)N2CCOCC2)ccc1O` [compound 79, (4-hydroxy-3-methoxyphenyl)-orpholin-4-ylmethanethione], the inhibition at 20 µM was 100%. Further, under “read-out: IC50”, the pIC50 was 5.88. On the same counts, the results for `CNC(=O)ON(C(C)=O)C(=O)NC` [compound 80, N-[(Methylamino)carbonyl]-N-[[(methylamino)carbonyl]oxy]ace tamide] are 96.4% and 5.88. Regarding `O=C(O)c1cc(O)c2c(c1)[C@H]([C@H]1c3cc(C(=O)O)cc(O)c3C(=O)c3c(O[C@@H]4O[C@H](CO)[C@@H](O)[C@H](O)[C@H]4O)cccc31)c1cccc(O[C@@H]3O[C@H](CO)[C@@H](O)[C@H](O)[C@H]3O)c1C2=O` [compound 81, (9R)-9-[(9R)-2-carboxy-4-hydroxy-10-oxo-5-[(2S,3R,4S,5S,6R)-3,4,5-trihydroxy-6-(hydroxymethyl)oxan-2-yl]oxy-9H-anthracen-9-yl]-4-hydroxy-10-oxo-5-[(2S,3R,4S,5S,6R)-3,4,5-trihydroxy-6-(hydroxymethyl)oxan-2-yl]oxy-9H-anthracene-2-carboxylic acid], the inhibition at 20 µM worked out at 103%.

As to `O=C(O)C(S)C(S)C(=O)O` (stereo not drawn) [compound 82, 2,3-bis(sulfanyl)butanedioic acid], the pIC50 is 5.76 and the inhibition at 20 µM worked out at 98.9%. With `Cc1ccccc1N(C)C(=O)c1ccc([S+]([O-])c2nccs2)c([N+](=O)[O-])c1` (stereo not drawn) [compound 84, N-methyl-N-(2-methylphenyl)-3-nitro-4-(1,3-thiazol-2-ylsulfinyl)benzamide], the inhibition at 20 µM came out at 96.7%. The pIC50 (read-out: IC50) was 5.73. As to `CN1CC[C@@]2(C)c3cc(O)ccc3N(C)[C@@H]12` [compound 85, (3aS,8bR)-3,4,8b-trimethyl-2,3a-dihydro-1H-pyrrolo[2,3-b] indol-7-ol], the inhibition at 20 µM stood at 91.5%. Moreover, the pIC50 (read-out: IC50) was 5.70. On the same counts, the results for `O=C(O)CCCCCCCCCCCCCCc1ccc(I)cc1` [compound 88, 15-(4-iodophenyl)pentadecanoic acid] are 95% and 5.65. With `COc1cccc(C(=O)CCN[C@@H](C)[C@H](O)c2ccccc2)c1` [compound 89, 3-[2(R)-Hydroxy-1(S)-methyl-2-phenylethylamino]-1-(3-methoxyphenyl)propan-1-one hydrochloride], the inhibition at 20 µM came to 90.8%. For the same compound, the pIC50 (read-out: IC50) was 5.63. Consider `C[N+]1(C)CCC(OC(=O)C(c2ccccc2)c2ccccc2)CC1` [compound 90, (1,1-dimethylpiperidin-1-ium-4-yl) 2,2-diphenylacetate;iodide], for which the pIC50 is 5.63 and the inhibition at 20 µM turned out to be 97.8%.

For `C=C1C(=O)[C@@]23C(CC[C@@H]1[C@H]2O)[C@@]12CO[C@]3(O)[C@@H](O)[C@@H]1C(C)(C)CC[C@@H]2O` (stereo partly drawn) [compound 91, (1S,5S,8R,9S,10S,11R,15S,18R)-9,10,15,18-tetrahydroxy-12,12-dimethyl-6-methylidene-17-oxapentacyclo[7.6.2.15,8.01,11.0 2,8]octadecan-7-one], the inhibition at 20 µM worked out at 98.2%.

The inhibition is the relative decrease from the control value, in per cent. One may read the pIC50 as the IC50 on a negative log10 scale, so that one unit is a factor of ten.

Source of the values: EP4011367A1, “COMPOUNDS FOR USE IN THE TREATMENT OF COVID-19” (priority 2020, dated 2022).
